Experimental data reported in PubChem BioAssay AID449740 (Southern Research Specialized Biocontainment Screening …, 2010).
Activity calls are given as the source filed them. The rule behind the calls is not given here.

What was measured:
[1] = polymyxin IC50 shift, round 3, mechanism study, late-stage follow-up (AID 449740); conditions: Salmonella Typhi WT vs phoP-, polymyxin IC50 shift, OD600 24 h, at 150 µM, stronger effect = higher value
[2] = system: Salmonella Typhi WT vs phoP-, polymyxin IC50 shift, OD600 24 h; assay: as above
[3] = measured here: phoP- strain shift
[4] = measured here: wild-type strain shift

| Structure (SMILES) | polymyxin IC50 shift difference WT minus phoP- [1] | polymyxin IC50 shift [1, 3] | polymyxin IC50 shift [1, 4] | IC50 [2] [µM] |
| --- | --- | --- | --- | --- |
| O=C(Nc1ccc(I)cc1)N1CCCN(Cc2ccccc2F)C1 | -9.38 (inactive) | 5.34 | -4.04 |  |
| O=C(Nc1ccc(Cl)cc1)N1CCCN(Cc2ccc(Br)cc2)C1 | -3.85 (inactive) | 0.497 | -3.36 |  |
| CCn1cc(C(=O)O)c(=O)c2cc(F)c(N3CCN(C(=S)Nc4ccccc4C)CC3)cc21 |  | -2.44 | 4.87 | 19 |
| CCn1cc(C(=O)O)c(=O)c2cc(F)c(N3CCN(C(=S)Nc4ccccc4OC)CC3)cc21 |  | -0.353 | 4.08 | 19 |
| S=C(NCCc1ccc(Cl)cc1)Nc1ccncc1 | -1.02 (inactive) | 6.57 | 5.55 |  |
| O=C(Nc1ccc(Cl)cc1)N1CCCN(Cc2ccccc2Br)C1 | -0.534 (inactive) | 6.73 | 6.2 |  |
